Laboratory results published in PMC5108454 (Cell metabolism, 2016).

Assays:
[1] = molecular target: T1, Sdh (succinate dehydrogenase; complex II) (Mus musculus, UniProt Q8K2B3); test: complex II enzyme activity microplate assay, Dixon plot; format: biochemical
[2] = molecular target: T1, Sdh (succinate dehydrogenase; complex II); test: complex II enzyme activity microplate assay, Lineweaver-Burk plot; format: biochemical; conditions: sodium succinate hexahydrate varied in activity buffer with phospholipid mixture

T1 sequence (Q8K2B3 43-664): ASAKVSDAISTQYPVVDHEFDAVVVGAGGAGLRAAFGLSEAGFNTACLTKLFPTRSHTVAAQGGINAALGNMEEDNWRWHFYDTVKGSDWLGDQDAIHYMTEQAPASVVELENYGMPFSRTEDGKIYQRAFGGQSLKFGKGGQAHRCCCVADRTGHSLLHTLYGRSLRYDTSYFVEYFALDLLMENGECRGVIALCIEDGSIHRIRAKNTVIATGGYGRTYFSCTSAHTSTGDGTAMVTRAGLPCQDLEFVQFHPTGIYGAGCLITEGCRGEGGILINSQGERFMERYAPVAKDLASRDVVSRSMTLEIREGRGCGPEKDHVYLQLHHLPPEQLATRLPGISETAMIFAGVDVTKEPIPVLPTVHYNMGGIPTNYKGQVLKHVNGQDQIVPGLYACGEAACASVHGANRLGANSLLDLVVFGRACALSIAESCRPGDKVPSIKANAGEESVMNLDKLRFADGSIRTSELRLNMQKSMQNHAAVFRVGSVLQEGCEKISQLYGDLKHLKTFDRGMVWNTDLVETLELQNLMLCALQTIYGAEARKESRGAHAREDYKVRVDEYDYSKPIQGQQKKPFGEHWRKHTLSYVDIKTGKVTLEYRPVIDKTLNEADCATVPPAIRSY
T1 sequence (Q9CQA3 31-282 partner): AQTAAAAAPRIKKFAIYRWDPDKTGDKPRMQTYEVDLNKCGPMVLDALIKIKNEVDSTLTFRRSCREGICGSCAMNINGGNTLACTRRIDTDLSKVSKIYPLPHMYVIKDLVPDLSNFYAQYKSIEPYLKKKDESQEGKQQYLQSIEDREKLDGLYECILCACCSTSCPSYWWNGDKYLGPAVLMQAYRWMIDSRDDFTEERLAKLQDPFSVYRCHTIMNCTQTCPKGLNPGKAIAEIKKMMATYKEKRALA
T1 sequence (Q9CZB0 30-169 partner): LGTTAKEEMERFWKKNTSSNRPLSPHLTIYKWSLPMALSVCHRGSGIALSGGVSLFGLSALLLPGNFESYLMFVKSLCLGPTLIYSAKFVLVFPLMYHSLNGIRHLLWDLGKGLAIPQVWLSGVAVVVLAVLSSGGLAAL
T1 sequence (Q9CXV1 57-159 partner): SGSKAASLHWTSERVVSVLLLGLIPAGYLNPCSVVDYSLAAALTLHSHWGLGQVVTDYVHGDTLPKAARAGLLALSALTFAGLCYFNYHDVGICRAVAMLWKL

Ki [1] | Km [2] | Structure (SMILES)
220 µM | – | C=C(CC(=O)O)C(=O)O [itaconate]
– | 290 ± 800 µM | O=C(O)CCC(=O)O [succinate]
